Patent publication US6274715A, “Tricyclic erythromycin derivatives” (priority 1997, dated 2001)
Values after ≈ are worked out from the molar mass of the structure shown.

Columns and labels:
Format in all cases: cell-based
[1] = test system: PSEUDOMONAS CEPACIA 296I; experiment: In vitro antibacterial activity, MIC, BHI agar dilution; settings: P. cepacia 296I, unit assumed
[2] = test system: PSEUDOMONAS AERUGINOSA DPHD-2862; experiment: as above; settings: P. aeruginosa DPHD-2862, unit assumed
[3] = test system: STREPTOCOCCUS PYOGENES 930; experiment: as above
[4] = test system: ESCHERICHIA COLI H560; experiment: as above; settings: E. coli H560, unit assumed
[5] = test system: ESCHERICHIA COLI JUHL; settings: E. coli JUHL; BHI agar; unit assumed
[6] = test system: PSEUDOMONAS AERUGINOSA BMH10; experiment: In vitro antibacterial activity, MIC, BHI agar dilution; settings: P. aeruginosa BMH10, unit assumed
[7] = test system: STAPHYLOCOCCUS AUREUS A-5278; experiment: as above; settings: S. aureus A-5278, unit assumed
[8] = test system: STAPHYLOCOCCUS AUREUS CMX 553; experiment: as above; settings: S. aureus CMX 553, unit assumed
[9] = test system: KLEBSIELLA PNEUMONIAE ATCC 8045; experiment: as above; settings: K. pneumoniae ATCC 8045, unit assumed
[10] = test system: STAPHYLOCOCCUS EPIDERMIDIS 3519; settings: S. epidermidis 3519; BHI agar; unit assumed
[11] = test system: STR[…] 508; experiment: In vitro antibacterial activity, MIC, BHI agar dilution
Method: (§1) Representative compounds of the present invention were assayed in vitro for antibacterial activity as follows: Twelve petri dishes containing successive aqueous dilutions of the test compound mixed with 10 mL of sterilized Brain Heart Infusion (BHI) agar (Difco 0418-01-5) were prepared. Each plate was inoculated with 1:100 (or 1:10 for slow-growing strains, such as Micrococcus and Streptococcus) dilutions of up to 32 different microorganisms, using a Steers replicator block. The inoculated plates were incubated at 35-37° C. for 20 to 24 hours. In addition, a control plate, using BHI agar containing no test compound, was prepared and incubated at the beginning and end of each test.
(§2) An additional plate containing a compound having known susceptibility patterns for the organisms being tested and belonging to the same antibiotic class as the test compound was also prepared and incubated as a further control, as well as to provide test-to-test comparability. Erythromycin A was used for this purpose.
(§3) After incubation, each plate was visually inspected. The minimum inhibitory concentration (MIC) was defmed as the lowest concentration of drug yielding no growth, a slight haze, or sparsely isolated colonies on the inoculum spot as compared to the growth control.

[12] = test system: M[…] ATCC 4698; experiment: as above; settings: M. luteus ATCC 4698, unit assumed
Method: as §1, §2, §3

[13] = test system: EN[…] ATCC 8043; experiment: as above; settings: E. faecium ATCC 8043, unit assumed
Method: as §1, §2, §3

[14] = test system: M[…] ATCC 9341; experiment: as above; settings: M. luteus ATCC 9341, unit assumed
Method: as §1, §2, §3

[15] = test system: MYCOBACTERIUM SMEGMATIS ATCC 114; experiment: as above; settings: M. smegmatis ATCC 114, unit assumed
[16] = test system: STREPTOCOCCUS BOVIS A-5169; experiment: as above; settings: S. bovis A-5169, unit assumed
[17] = test system: PSEUDOMONAS AERUGINOSA 5007; experiment: as above; settings: P. aeruginosa 5007, unit assumed
[18] = test system: STAPHYLOCOCCUS AUREUS CMX 642A; experiment: as above; settings: S. aureus CMX 642A, unit assumed
[19] = test system: STAPHYLOCOCCUS AUREUS 1775; experiment: as above; settings: S. aureus 1775, unit assumed
[20] = test system: ESCHERICHIA COLI SS; experiment: as above; settings: E. coli SS
[21] = test system: PSEUDOMONAS AERUGINOSA DPHD-5263; experiment: as above; settings: P. aeruginosa DPHD-5263, unit assumed
[22] = test system: ESCHERICHIA COLI DC-2; experiment: as above; settings: E. coli DC-2, unit assumed
[23] = test system: ESCHERICHIA COLI KNK 437; settings: E. coli KNK 437; BHI agar; unit assumed
[24] = test system: CANDIDA ALBICANS CCH 442; experiment: In vitro antibacterial activity, MIC, BHI agar dilution
[25] = test system: STREPTOCOCCUS PYOGENES PIU 2548; experiment: as above; settings: S. pyogenes PIU 2548, unit assumed
[26] = test system: ENTEROBACTER AEROGENES ATCC 13048; experiment: as above; settings: E. aerogenes ATCC 13048, unit assumed
[27] = test system: PROVIDENCIA STUARTII CMX 640; settings: P. stuartii CMX 640; BHI agar; unit assumed
[28] = test system: PSEUDOMONAS AERUGINOSA K799/WT; experiment: In vitro antibacterial activity, MIC, BHI agar dilution; settings: P. aeruginosa K799/WT, unit assumed
[29] = test system: STREPTOCOCCUS PYOGENES EES61; experiment: as above
[30] = test system: PSEUDOMONAS AERUGINOSA K799/61; experiment: as above
[31] = test system: STAPHYLOCOCCUS AUREUS NCTC10649M; experiment: as above; settings: S. aureus NCTC10649M, unit assumed
[32] = test system: STAPHYLOCOCCUS AUREUS ATCC 6538P; experiment: as above; settings: S. aureus ATCC 6538P, 35-37° C., 20 to 24 hours, unit assumed
[33] = S. agalactiae CMX 508, unit assumed
[34] = C. albicans CCH 442, unit assumed
[35] = S. pyogenes EES61, unit assumed

| Compound | MIC [1] | MIC [2] | MIC ([3]; S. pyogenes 930, unit assumed) | MIC [4] | MIC [5] | MIC [6] | MIC [7] | MIC [8] | MIC [9] | MIC [10] | MIC [11, 33] | MIC [12] | MIC [13] | MIC [14] | MIC [15] | MIC [16] | MIC [17] | MIC [18] | MIC [19] | MIC [25] | further results |
| --- | --- | --- | --- | --- | --- | --- | --- | --- | --- | --- | --- | --- | --- | --- | --- | --- | --- | --- | --- | --- | --- |
| CCC1OC(=O)C(C)C(=O)C(C)C(OC2OC(C)CC(N(C)C)C2O)C(C)(OC)CC(C)C2=NCC(C)(CN(C)C)N3C(=O)OC1(C)C3C2C (stereo not drawn) [Example 136] | > 100 µg/mL | > 100 µg/mL | > 100 µg/mL | 100 µg/mL (≈ 141 µM) | 100 µg/mL (≈ 141 µM) | > 100 µg/mL | > 100 µg/mL | 1.56 µg/mL (≈ 2.2 µM) | > 100 µg/mL | 1.56 µg/mL (≈ 2.2 µM) | 0.1 µg/mL (≈ 0.141 µM) | 0.78 µg/mL (≈ 1.1 µM) | 0.2 µg/mL (≈ 0.282 µM) | 0.1 µg/mL (≈ 0.141 µM) | 6.2 µg/mL (≈ 8.75 µM) | 0.02 µg/mL (≈ 0.0282 µM) | > 100 µg/mL | 1.56 µg/mL (≈ 2.2 µM) | > 100 µg/mL | 1.56 µg/mL (≈ 2.2 µM) | MIC ([20]; unit assumed): 0.78 µg/mL (≈ 1.1 µM); MIC [21]: > 100 µg/mL; MIC [22]: > 100 µg/mL; MIC [23]: > 100 µg/mL; MIC [24, 34]: > 100 µg/mL; MIC [26]: > 100 µg/mL; MIC [27]: > 100 µg/mL; MIC [28]: > 100 µg/mL; MIC [29, 35]: 0.1 µg/mL (≈ 0.141 µM) |
| CC[C@H]1OC(=O)[C@H](C)C(=O)[C@H](C)[C@@H](O[C@@H]2O[C@H](C)C[C@H](N(C)C)[C@H]2O)[C@](C)(OC)C[C@@H](C)C2=NC(COCc3ccccc3)C(COCc3ccccc3)N3C(=O)O[C@@]1(C)[C@H]3[C@H]2C (stereo partly drawn) [Example 146] | 25 µg/mL (≈ 28.5 µM) | 100 µg/mL (≈ 114 µM) | 12.5 µg/mL (≈ 14.2 µM) | 25 µg/mL (≈ 28.5 µM) | 50 µg/mL (≈ 56.9 µM) | 100 µg/mL (≈ 114 µM) | 50 µg/mL (≈ 56.9 µM) | 0.39 µg/mL (≈ 0.444 µM) | 100 µg/mL (≈ 114 µM) | 0.39 µg/mL (≈ 0.444 µM) | 0.05 µg/mL (≈ 0.0569 µM) | 0.2 µg/mL (≈ 0.228 µM) | 0.05 µg/mL (≈ 0.0569 µM) | 0.05 µg/mL (≈ 0.0569 µM) | 0.39 µg/mL (≈ 0.444 µM) | 0.05 µg/mL (≈ 0.0569 µM) | 100 µg/mL (≈ 114 µM) | 0.39 µg/mL (≈ 0.444 µM) | 50 µg/mL (≈ 56.9 µM) | 0.78 µg/mL (≈ 0.888 µM) | MIC ([30]; P. aeruginosa K799/61, unit assumed): 0.78 µg/mL (≈ 0.888 µM); MIC [31]: 0.39 µg/mL (≈ 0.444 µM); MIC ([20]; unit assumed): 0.78 µg/mL (≈ 0.888 µM); MIC [21]: 100 µg/mL (≈ 114 µM); MIC [32]: 0.39 µg/mL (≈ 0.444 µM); MIC [22]: 100 µg/mL (≈ 114 µM); MIC [23]: 25 µg/mL (≈ 28.5 µM); MIC [24, 34]: 50 µg/mL (≈ 56.9 µM); MIC [26]: > 100 µg/mL; MIC [27]: 100 µg/mL (≈ 114 µM); MIC [28]: 100 µg/mL (≈ 114 µM); MIC [29, 35]: 0.05 µg/mL (≈ 0.0569 µM) |
| CC[C@H]1OC(=O)[C@H](C)C(=O)[C@H](C)[C@@H](O[C@@H]2O[C@H](C)C[C@H](N(C)C)[C@H]2O)[C@](C)(OC)C[C@@H](C)C2=NC(COCc3ccc(Cl)cc3)C(COCc3ccc(Cl)cc3)N3C(=O)O[C@@]1(C)[C@H]3[C@H]2C (stereo partly drawn) [Example 148] |  |  |  |  |  |  | 12.5 µg/mL (≈ 13.2 µM) |  |  |  |  | 1.56 µg/mL (≈ 1.65 µM) | 0.78 µg/mL (≈ 0.824 µM) |  |  | 0.2 µg/mL (≈ 0.211 µM) |  |  |  | 3.1 µg/mL (≈ 3.27 µM) | MIC ([3]; S. pyogenes 930, listed as Ex 148, unit assumed): 6.2 µg/mL (≈ 6.55 µM); MIC ([30]; P. aeruginosa K799/61, listed as Ex 148, unit assumed): 25 µg/mL (≈ 26.4 µM); MIC ([11]; S. agalactiae CMX 508, listed as Ex 148, unit assumed): 0.39 µg/mL (≈ 0.412 µM); MIC ([20]; listed as Ex 148, unit assumed): 25 µg/mL (≈ 26.4 µM); MIC ([24]; C. albicans CCH 442, listed as Ex 148, unit assumed): > 100 µg/mL; MIC ([29]; S. pyogenes EES61, listed as Ex 148, unit assumed): 0.2 µg/mL (≈ 0.211 µM) |
